Test results from patent publication US12214058B2, “Imaging methods using deuterated compounds” (Genentech, Inc., priority 2014, dated 2025).

Assays:
[1] = Microsomal stability assay, human liver microsomes; format: in vitro ADME; settings: for amount of remaining compound: non-radiolabeled, 40 min
Method: Microsomal stability assays The tracer [^18F][A]-d2 or [^18F][A] was dissolved in potassium phosphate (Kpi) buffer (100 mM) at concentration 500-600 μCi/mL. The non-radioactive 7 and 10 were dissolved in Kpi buffer at 10 μM concentration. The reaction vessel was charged with human or mouse liver microsome suspension (12.5 μL, 20 mg/mL) followed by Kpi buffer (388 μL, 10 mM), NADPH (50 μL, 10 mM) and incubated at 37° C. for 5-10 min. A solution of the radioactive [^18F][A]-d2 or [^18F][A] (50 μL, […]) or non-radioactive 7 or […] (50 μL, 10 μM) were added to the reaction vessel and the mixture was incubated at 37° C. […] The supernatant was analyzed by LCMS (System E).

[2] = Microsomal stability assay, mouse liver microsomes; format: in vitro ADME; settings: 5 min; for fraction of unmetabolized compound: non-radiolabeled
Method: (§1) Microsomal stability assays The tracer [^18F][A]-d2 or [^18F][A] was dissolved in potassium phosphate (Kpi) buffer (100 mM) at concentration 500-600 μCi/mL. The non-radioactive 7 and 10 were dissolved in Kpi buffer at 10 μM concentration. The reaction vessel was charged with human or mouse liver microsome suspension (12.5 μL, 20 mg/mL) followed by Kpi buffer (388 μL, 10 mM), NADPH (50 μL, 10 mM) and incubated at 37° C. for 5-10 min. A solution of the radioactive [^18F][A]-d2 or [^18F][A] (50 μL, 250-300 μCi) or non-radioactive 7 or 8 (50 μL, 10 μM) were added to the reaction vessel and the mixture was incubated at 37° C. Aliquots (50 μL) of the reaction mixture were taken at 5, 15 and 45 minutes post addition of the tested compound, mixed with ice-cold acetonitrile (100 μL) and centrifuged. The supernatant was analyzed by LCMS (System E).

[3] = Dynamic microPET imaging in mice; format: in vivo, mice (C57BL/6)
Method: MicroPET Imaging The PET imaging was performed on Inveon PET/CT scanner (Siemens Medical Solutions USA Inc.). Animals anesthetized with sevoflurane were placed head-first, prone position on the scanner bed and dynamic 45 min scans were initiated. Approximately 3.7 MBq of ^18F-radiolabeled tracer in isotonic solution (100-130 μL) was administered as 60 second intravenous infusion via the tail vein. Body temperature was measured by a rectal probe and maintained with warm air flow at 37° C. Full-body iterative image reconstructions were obtained using maximum a posteriori algorithm (MAP, hyperparameter β 0.05) and corrected for signal attenuation using the tissue density obtained from CT. Projections were created with PMOD 3.305 (PMOD Technologies, Ltd., Zurich, Switzerland) and used to obtain quantitative activity levels in each organ of interest using region-of-interest analysis.

[4] = test system: tau (NFTs) in human brain tissues; assay: Autoradiography on postmortem human brain tissues; format: binding
Method: Autoradiography The tracer [^18F][A] or [^18F][A]-d2 was dissolved in PBS containing 5% DMSO and 5% ethanol at final concentration 40 μCi/mL. Then 0.5 ml of stock solution was transferred to a microscope slide with 5 μm thick freshly dried section of a tissue and incubated for 90 min at room temperature. The slides were washed by dipping into following solutions: PBS for 1 min, 70% ethanol 2 min, 30% ethanol 2 min and PBS 1 min. The samples were dried at room temperature for 30 min and exposed to phosphorimager plate for 20 h. The exposed plates were scanned at 25 μm resolution.
Autoradiographic evaluation of [^18F][A] and [^18F][A]-d2 was performed using brain tissues collected postmortem from human donors. […] The positive staining was found in grey matter of tissues containing high level of NFTs and high AD-amyloid characterized as Braak score 5. […] The NFT and Aβ-amyloid burden was measured by standard immunohistochemical methods.

[5] = Microsomal stability assay, rhesus liver microsomes; format: in vitro ADME
Method: as §1, with “E). The radiolabeled tracers [^18F][A] and [^18F][A]-d2 (n=3) were incubated with human, rhesus or mouse liver microsome suspension with or without NADPH at 37° C. and the mixture was analyzed for a presence of radioactive metabolites at 5, 15 and 45 min. In the presence of mouse and rhesus liver microsomes, both the [^18F][A] and [^18F][A]-d2 metabolized rapidly to ^18F-fluoride (retention time (rt)=0.38 min), and two radioactive metabolites M2 and M1 (rt=1.2 and 1.4 min). […]” for “E).”

[6] = target: tau aggregates in AD patient tissues; settings: cited from earlier work

amount of remaining compound [1] [%] | fraction of unmetabolized compound [2] [%] | bone uptake ([3]; n=6, 30-45 min post tracer injection) [% ID/g] | fraction attributed to parent compound ([1]; radiolabeled, 45 min incubation, n=3) [%] | autoradiographic binding pattern ([4]; human brain tissues, positive staining in grey matter with high NFTs, Braak score 5) | stability of parent compound compared with mouse liver microsomes [5] | amount of parent compound ([2]; radiolabeled, n=3) [%] | uptake in liver and kidneys, comparison of the two tracers ([3]; n=6) | peak uptake in brain ([3]; n=6, i.v., dynamic PET) [% ID/g] | Compound | staining of negative control tissues ([4]; high or moderate amyloid burden but no NFTs, Braak score 3 or 2) | Kd ([6]; AD patient tissues, read-out: affinity for tau aggregates in AD patient tissues) [nM] | selectivity for tau over Aβ amyloid [6] [fold]
15 | 2 | 31.2±4.8 |  |  |  |  |  |  | FCCC1CCN(c2ccn3c(n2)nc2ccccc23)CC1 [[A], 2-(1-(benzo[4,5]imidazo[1,2-a]pyrimidine-2-yl)piperidin-4-yl)-1-fluoroethane, reference compound] |  |  | 
56 | 11 |  |  |  |  |  |  |  | [2H]C([2H])(F)CC1CCN(c2ccn3c(n2)nc2ccccc23)CC1 [[A]-d2, 1,1-dideutero-2-(1-(benzo[4,5]imidazo[1,2-a]pyrimidine-2-yl)piperidin-4-yl)-1-fluoroethane] |  |  | 
 |  |  | 35.7±0.9 | tau specific binding patterns | slightly more stable | 1.6±0.9 | indistinguishable | 8.3±2.0 | [18F]CCC1CCN(c2ccn3c(n2)nc2ccccc23)CC1 [[^18F][A], 2-(1-(benzo[4,5]imidazo[1,2-a]pyrimidine-2-yl)piperidin-4-yl)-1-[^18F]fluoroethane, reference compound] | not positively stained | 22 | 27
